Assay in all cases: inhibition of tumour cell growth, NCI panel, 48 h
Test [1] relates to OVCAR-3.
The subject of test [2] is NCI-H226.
For test [3], the system named is 786-0.
Test [4] deals with HL-60.
Test [5] has as its system MDA-N.
Test [6] deals with SF-295.
In test [7] the test system is HOP-92.
In test [8] the test system is DU-145.
Test [9] concerns HCC 2998.
For test [10], the system named is LOX IMVI.
Test [11] deals with NCI/ADR-RES.
The subject of test [12] is MDA-MB-435.
Test [13] deals with IGROV-1.
In test [14] the test system is HCT-15.
For test [15], the system named is U-251.
In test [16] the test system is COLO 205.
The subject of test [17] is A549.
Test [18] relates to EKVX.
In test [19] the test system is UACC-257.
Test [20] deals with SF-268.

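Dose response: 5 concentrations. Exposure: 48 h. Format: 96-well plates. Endpoint: linear interpolation; highest concentration if not reached. Abbreviation: GI50, concentration required for 50% inhibition of growth.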 Calls of active or inactive are those of the source. Rule as the data show it: active = GI50 up to about 1.1 µM and inactive = higher.

Consider `COc1ccc([C@]23CCC4(OCC(C)(C)CO4)[C@H]4CON(O[C@H](O[C@@H]5CCCCC5C(C)(C)c5ccccc5)C2)[C@@H]43)cc1OC` (some centres undefined), for which the GI50 in test [1] is 34 µM (inactive); in test [2], 58.6 µM (inactive); in test [3], 50.5 µM (inactive); in test [4] it was 20.6 µM (inactive); in test [5] it was 28.8 µM (inactive); in test [6], 39 µM (inactive). The GI50 in test [7] was 25.8 µM (inactive); in test [8], 59.3 µM (inactive); in [9] it was > 100 µM (inactive); in [10] it was 57.5 µM (inactive); in test [11] it was 31 µM (inactive); in test [12], 25.9 µM (inactive). The GI50 in test [13] is 32.7 µM (inactive); in test [14], 37.8 µM; in [15], 64 µM (inactive); in [16], 34.7 µM (inactive); in [17], 42.3 µM (inactive); in test [18] it was 34 µM (inactive). The GI50 in test [19] is 36.6 µM (inactive).
Consider `CC(=O)NC1C(OCc2ccccc2)OC(CO)C(O)C1OCC(=O)N[C@@H](C)C(=O)N[C@H](CCC(=O)NCCCNc1c2ccccc2nc2cccc([N+](=O)[O-])c12)C(N)=O` (some centres undefined), for which the GI50 is 0.0678 µM (active) in test [1]; 0.0586 µM (active) in test [2]; < 0.0168 µM (active) in test [3]; 0.0559 µM (active) in test [4]; 0.023 µM (active) in test [5]; 0.15 µM (active) in [6]. Moreover, the GI50 in test [7] is 0.0295 µM (active); in [8], 0.0308 µM (active); in test [9] it was 0.0142 µM (active); in test [10] it was 0.0439 µM (active); in [11] it was 0.564 µM (active); in test [12], 0.0295 µM (active). The GI50 in [13] is 0.0506 µM (active); in test [14], 0.0312 µM; in [15] it was 0.0349 µM (active); in [16] it was 0.0118 µM (active); in [17], 0.0245 µM (active); in test [18], 0.0462 µM (active). Moreover, the GI50 in test [19] is 0.0448 µM (active).
As to `COc1cc(C(=O)/C=C/c2ccc(OCCSCCCCCCCCCCSCCOc3ccc(/C=C/C(=O)c4cc(OC)c(OC)c(OC)c4)cc3)cc2)cc(OC)c1OC`, the GI50 in [1], in test [3], in test [4], in test [5], in test [6] and in [7] was > 100 µM (inactive) throughout. Moreover, the GI50 in test [8], in test [20], in [9], in test [10], in [11] and in test [12] was > 100 µM (inactive) each time. Also, the GI50 is > 100 µM (inactive) in test [13]; above 100 µM in [14]; > 100 µM (inactive) in [15]; > 100 µM (inactive) in test [16]; > 100 µM (inactive) in [17]; > 100 µM (inactive) in [18].
On to `C[C@]12CCC(=O)C=C1CC[C@@H]1[C@@H]2CC[C@]2(C)C(=O)/C(=C\c3ccccc3)C[C@@H]12`, for which the GI50 in test [1] is 22.1 µM (inactive); in test [2], 2.38 µM (inactive); in test [3], 26.1 µM (inactive); in test [4] it was 9.79 µM (inactive); in test [5], 16 µM (inactive); in test [6], 29.9 µM (inactive). The GI50 in test [7] was 23.2 µM (inactive); in [8] it was 33.5 µM (inactive); in test [9] it was 17.4 µM (inactive); in test [10], 21.2 µM (inactive); in test [11], 14 µM (inactive); in test [12] it was 24.9 µM (inactive). Also, the GI50 in test [13] is 51.3 µM (inactive); in test [14], 21.9 µM; in test [15] it was 29.4 µM (inactive); in test [16], 24.2 µM (inactive); in [17], 22.6 µM (inactive); in test [18] it was 19 µM (inactive). In addition, the GI50 in [19] was 23.1 µM (inactive).
With `CCN(CC)c1ccc2cc(C(N)=S)c(=N)oc2c1`, the GI50 in test [2], in test [3], in test [4], in [5], in test [6] and in test [7] was > 100 µM (inactive) each time. Also, the GI50 in test [8], in [20], in test [9], in test [10], in test [11] and in test [12] was > 100 µM (inactive) in each case. The GI50 was > 100 µM (inactive) in [13]; above 100 µM in [14]; > 100 µM (inactive) in test [15]; > 100 µM (inactive) in [16]; > 100 µM (inactive) in test [17]; > 100 µM (inactive) in [18]. Moreover, the GI50 in test [19] was > 100 µM (inactive).
Consider `CC(=O)OCC1OC(n2c(C)c(C(C)=O)c(-c3ccc(Cl)cc3)c(C#N)c2=S)C(OC(C)=O)C(OC(C)=O)C1OC(C)=O` (centres undefined), for which the GI50 in test [1], in [2], in test [3], in [4], in [5] and in test [6] was > 100 µM (inactive) each time. For the same compound, the GI50 in test [7], in test [8], in [20], in test [9], in test [10] and in test [11] was > 100 µM (inactive) throughout. In addition, the GI50 is > 100 µM (inactive) in test [12]; > 100 µM (inactive) in test [13]; above 100 µM in test [14]; > 100 µM (inactive) in [15]; > 100 µM (inactive) in test [16]; > 100 µM (inactive) in [17]. In test [19], the GI50 is > 100 µM (inactive).
Consider `CC1=CC(=O)/C(=C/Nc2nc(-c3ccc([N+](=O)[O-])cc3)cs2)C(=O)O1`, for which the GI50 is > 100 µM (inactive) in test [2]; > 100 µM (inactive) in [3]; 19.9 µM (inactive) in test [4]; > 100 µM (inactive) in test [5]; > 100 µM (inactive) in test [6]; > 100 µM (inactive) in test [7]. The GI50 in [8], in [20], in [9], in test [10], in test [11] and in test [12] was > 100 µM (inactive) each time. Besides, the GI50 in test [13] is > 100 µM (inactive); in [14], above 100 µM; in test [15], > 100 µM (inactive); in test [16] it was > 100 µM (inactive); in test [17], > 100 µM (inactive); in test [18] it was > 100 µM (inactive). Also, the GI50 in test [19] was > 100 µM (inactive).
On to `C=C1C(=O)[C@]23[C@H](O)[C@H]1CC[C@H]2[C@@]12CO[C@@]3(O)C[C@@H]1C(C)(C)CC[C@@H]2O` [MEGATHYRIN A], for which the GI50 in test [1] was 11.5 µM (inactive); in test [2] it was 8.22 µM (inactive); in [3], 9.57 µM (inactive); in test [4], 8.45 µM (inactive); in test [5], 7.69 µM (inactive); in test [6], 12.3 µM (inactive). In addition, the GI50 in test [7] is > 25 µM (inactive); in test [8], 9.53 µM (inactive); in [20], 6.34 µM (inactive); in test [9] it was 8.69 µM (inactive); in [10], 4.25 µM (inactive); in test [11], 9.66 µM (inactive). Moreover, the GI50 in test [12] was 4.12 µM (inactive); in test [13] it was 7.14 µM (inactive); in test [14], 6.95 µM; in test [16], 3.98 µM (inactive); in test [17] it was 16.2 µM (inactive); in test [18], 9.79 µM (inactive). Also, the GI50 in test [19] was 6.01 µM (inactive).
Take `O=C(O)c1cc2ccccc2c(S(=O)(=O)O)c1O`: the GI50 in test [1], in test [3], in test [4], in [5], in test [6] and in test [7] was > 100 µM (inactive) each time. In addition, the GI50 in test [8], in [20], in [9], in [10], in test [11] and in [12] was > 100 µM (inactive) in each case. In addition, the GI50 in test [13] is > 100 µM (inactive); in test [14] it was above 100 µM; in [15], > 100 µM (inactive); in test [16], > 100 µM (inactive); in test [17], > 100 µM (inactive); in test [18], > 100 µM (inactive). For the same compound, the GI50 in test [19] was > 100 µM (inactive).
For the compound `O=[N+]([O-])c1ccc(/N=N\c2c(O)ccc3ccccc23)c([N+](=O)[O-])c1`, the GI50 in test [1], in [2], in test [3], in [5], in test [6] and in [7] was > 100 µM (inactive) each time. The GI50 in test [8], in [20], in test [9], in test [10], in [11] and in test [12] was > 100 µM (inactive) throughout. Moreover, the GI50 in test [13] is > 32.7 µM (inactive); in [14] it was above 100 µM; in [15], > 100 µM (inactive); in test [16], > 100 µM (inactive); in test [17], > 100 µM (inactive); in test [18], > 60.4 µM (inactive). Moreover, the GI50 in test [19] is > 100 µM (inactive).
